Molecules are shown by their SMILES. Where “and” joins values, the source holds several entries; their conditions need not be identical. Identical values can stand only once.

Here are results for ten molecules from BindingDB's records for doi:10.1002/1439-7633(20021004)3:10 (Aventis Pharmaceuticals, 2002).

The target of this test is T1, Alpha-1B adrenergic receptor (Rattus norvegicus, UniProt P15823).
T1 sequence (P15823 whole entry): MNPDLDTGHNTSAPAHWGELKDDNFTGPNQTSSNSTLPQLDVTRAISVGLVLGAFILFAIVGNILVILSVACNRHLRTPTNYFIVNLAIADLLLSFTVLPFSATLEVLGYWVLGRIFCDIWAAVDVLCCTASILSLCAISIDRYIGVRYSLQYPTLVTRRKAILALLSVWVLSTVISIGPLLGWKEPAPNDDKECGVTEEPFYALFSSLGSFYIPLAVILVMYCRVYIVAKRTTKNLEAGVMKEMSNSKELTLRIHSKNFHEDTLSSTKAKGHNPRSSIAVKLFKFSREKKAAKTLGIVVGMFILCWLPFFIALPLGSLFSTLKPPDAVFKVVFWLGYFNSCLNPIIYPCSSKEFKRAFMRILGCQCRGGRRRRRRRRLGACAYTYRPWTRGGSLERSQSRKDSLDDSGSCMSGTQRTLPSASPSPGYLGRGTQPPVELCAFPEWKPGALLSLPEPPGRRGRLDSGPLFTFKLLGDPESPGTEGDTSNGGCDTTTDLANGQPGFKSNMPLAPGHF
Briefly: Binding Assay. The method, then:
All rat alpha-1 adrenoceptor binding was performed by Hugo M. vargas, Karen M. Brooks and Lynn Laws-Ricker.
As a reminder, the Ki is a measure of affinity in units of concentration, obtained from inhibition or displacement. Higher therefore signals a looser hold on the target. For `OCC(CN1Cc2ccccc2C1)N1CCC(c2noc3cc(F)ccc23)CC1` (stereo not given) [Isoindoline, 9], the inhibitory constant (Ki) was 43 nM and 54.5 nM and 225 nM.
To `OCC(CN1Cc2ccc(F)cc2C1)N1CCC(c2noc3cc(F)ccc23)CC1` (stereo not given) [Isoindoline, 11] belongs 92.5 nM.
To `OCC(CN1Cc2cccc(F)c2C1)N1CCC(c2noc3cc(F)ccc23)CC1` (stereo not given) [Isoindoline, 12] belongs 232 nM; to `OCC(CN1Cc2ccc(Cl)cc2C1)N1CCC(c2noc3cc(F)ccc23)CC1` (stereo not given) [Isoindoline, 13], 11.9 nM.
To `Cc1cccc2c1CN(CC(CO)N1CCC(c3noc4cc(F)ccc34)CC1)C2` (stereo not given) [Isoindoline, 16] belongs 12.4 nM.
Take `OCC(CN1Cc2ccc(C(F)(F)F)cc2C1)N1CCC(c2noc3cc(F)ccc23)CC1` (stereo not given) [Isoindoline, 17]: the Ki was 26 nM.
In turn, `COc1ccc2c(c1)CN(CC(CO)N1CCC(c3noc4cc(F)ccc34)CC1)C2` (stereo not given) [Isoindoline, 19] had a Ki of 20 nM.
Then `COc1cccc2c1CN(CC(CO)N1CCC(c3noc4cc(F)ccc34)CC1)C2` (stereo not given) [Isoindoline, 20], with 17.5 nM.
With `O=C1c2ccccc2CN1CC(CO)N1CCC(c2noc3cc(F)ccc23)CC1` (stereo not given) [Isoindoline, 23], the Ki came out at 4.1 nM.
To `OCC(CN1CCc2ccccc2C1)N1CCC(c2noc3cc(F)ccc23)CC1` (stereo not given) [Isoindoline, 26] belongs 19 nM.
